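Tested at 5 concentrations; 48 h exposure; 96-well plates; endpoints linearly interpolated, else capped at highest concentration. GI50 marks 50% less growth.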 Activity calls are given as the source filed them. Rule as the data show it: active = GI50 up to about 1.1 µM and inactive = higher.
Key:
Assay in all cases: DTP human tumour cell line panel, 48 h
RXF 631 = tested on: RXF 631
M19-MEL = tested on: M19-MEL
DMS-273 = tested on: DMS-273
HOP-18 = tested on: HOP-18
KM-20L2 = tested on: KM-20L2
LXFL 529 = tested on: LXFL 529
DLD-1 = tested on: DLD-1
SNB-78 = tested on: SNB-78
XF498 = tested on: XF498

SMILES | GI50 (RXF 631) | GI50 (M19-MEL) | GI50 (DMS-273) | GI50 (HOP-18) | GI50 (KM-20L2) | GI50 (LXFL 529) | GI50 (DLD-1) | GI50 (SNB-78) | GI50 (XF498)
C=C1CCC2C(C)(CO)C(O)CCC2(C)C1CC(O)C1=CCOC1=O (stereo not given) | 30.5 µM (inactive) | 45.5 µM (inactive) | > 100 µM (inactive) | 54.7 µM (inactive) | 47.4 µM (inactive) | 27 µM (inactive) | 86.3 µM (inactive) | – | –
COC1=C(C)C(=O)C2=C(C1=O)C1C3CC4=C(C(=O)C(OC)=C(C)C4=O)C(CNC(=O)C(C)=O)N3C(C#N)C(C2)N1C (stereo not given) | 0.0206 µM (active) | 0.00634 µM (active) | 0.00432 µM (active) | 0.0553 µM (active) | 0.0149 µM (active) | – | 0.00254 µM (active) | 0.00617 µM (active) | –
C=C(c1ccccc1)C1(O)CCCCC1N (stereo not given) | – | > 100 µM (inactive) | > 100 µM (inactive) | > 100 µM (inactive) | > 100 µM (inactive) | > 100 µM (inactive) | > 100 µM (inactive) | > 100 µM (inactive) | –
COc1cccc2c1c1ccc3c(c1n2C)C(=O)C=CC3=O | – | 1.24 µM (inactive) | 16 µM (inactive) | 14.1 µM (inactive) | 63.4 µM (inactive) | 12 µM (inactive) | 16.4 µM (inactive) | 18.7 µM (inactive) | 15.8 µM (inactive)
C/N=C(\N)c1ccc(NC(=N)c2ccc(C(=N)Nc3ccc(/C(N)=N/C)cc3)cc2)cc1 | > 100 µM (inactive) | > 100 µM (inactive) | > 100 µM (inactive) | – | – | > 100 µM (inactive) | – | – | –
O=C(CCC(=O)Nc1ccc(Cl)c(Cl)c1)Cc1nc2ccccc2o1 | > 100 µM (inactive) | > 100 µM (inactive) | > 100 µM (inactive) | > 100 µM (inactive) | > 100 µM (inactive) | > 100 µM (inactive) | – | > 100 µM (inactive) | –
NCC1(N2CCOCC2)C2CCCC21CO (stereo not given) | – | > 100 µM (inactive) | > 100 µM (inactive) | > 100 µM (inactive) | – | > 100 µM (inactive) | > 100 µM (inactive) | > 100 µM (inactive) | –
Nc1ccc(C(=O)CC2(O)C(=O)Nc3c(Cl)cc(Cl)cc32)cc1 (stereo not given) | 28.8 µM (inactive) | 47 µM (inactive) | – | 90.6 µM (inactive) | > 100 µM (inactive) | 37.8 µM (inactive) | 42.9 µM (inactive) | – | –
COC(=O)C(=O)C(C(=O)C(=O)Nc1ccccc1C(N)=O)c1nc2ccc(C(=O)c3ccccc3)cc2nc1O (stereo not given) | > 100 µM (inactive) | > 100 µM (inactive) | 62.8 µM (inactive) | 37.1 µM (inactive) | > 100 µM (inactive) | 44.6 µM (inactive) | – | 68.7 µM (inactive) | > 100 µM (inactive)
CC(C)(C)OC(=O)NC1CCCC1=O (stereo not given) | > 100 µM (inactive) | > 100 µM (inactive) | > 100 µM (inactive) | – | > 100 µM (inactive) | > 100 µM (inactive) | > 100 µM (inactive) | > 100 µM (inactive) | > 100 µM (inactive)
COc1cc(C(Cc2ccccc2)NC(C)=O)oc(=O)c1 (stereo not given) | – | > 100 µM (inactive) | > 100 µM (inactive) | – | > 100 µM (inactive) | > 100 µM (inactive) | > 100 µM (inactive) | – | > 100 µM (inactive)
COc1ccc(C2C(C(=O)O)=C(COC(C)=O)Oc3cc4c(cc32)OCO4)c(OC)c1 (stereo not given) | > 100 µM (inactive) | > 100 µM (inactive) | > 100 µM (inactive) | > 100 µM (inactive) | > 100 µM (inactive) | – | > 100 µM (inactive) | > 100 µM (inactive) | > 100 µM (inactive)
CNC1=C(C)C(=O)C(C)=C(C(C)(C)CC(=O)n2cc(F)c(=O)[nH]c2=O)C1=O | 23.4 µM (inactive) | 49.7 µM (inactive) | 23.1 µM (inactive) | > 100 µM (inactive) | 31.3 µM (inactive) | > 89.1 µM (inactive) | 12.8 µM (inactive) | > 100 µM (inactive) | 97.7 µM (inactive)
CCCC/C=C/C1Cc2ccccc2CN1S(=O)(=O)c1ccc(C)cc1 (stereo not given) | 5.78 µM (inactive) | 6.01 µM (inactive) | 7.71 µM (inactive) | 83 µM (inactive) | 11.6 µM (inactive) | 5.42 µM (inactive) | 7.71 µM (inactive) | – | 17 µM (inactive)
COC(=O)C(C(=O)C(=O)Nc1ccc(C)cc1C)c1csc(-n2nc(-c3ccccc3)cc2-c2ccccc2)n1 (stereo not given) | > 100 µM (inactive) | > 100 µM (inactive) | > 100 µM (inactive) | 40.4 µM (inactive) | 57.5 µM (inactive) | > 100 µM (inactive) | > 100 µM (inactive) | > 100 µM (inactive) | > 100 µM (inactive)
C=CC[C@@]1(C#N)C[C@H](C[C@]2(C#N)C[C@H](CCl)OC(C)(C)O2)OC(C)(C)O1 | – | > 100 µM (inactive) | > 100 µM (inactive) | > 100 µM (inactive) | > 100 µM (inactive) | – | > 100 µM (inactive) | – | 81.1 µM (inactive)
CCOc1cc2ccc3c4cc(OC)c(OC)cc4cnc3c2cc1OCC | – | > 100 µM (inactive) | – | > 100 µM (inactive) | > 100 µM (inactive) | > 100 µM (inactive) | > 100 µM (inactive) | > 100 µM (inactive) | > 100 µM (inactive)
CCN(CCCl)CCCCNc1c2ccccc2nc2ccc(OC)cc12 | 0.553 µM (active) | 0.235 µM (active) | 0.0865 µM (active) | – | 0.238 µM (active) | 0.0923 µM (active) | 0.0891 µM (active) | 0.527 µM (active) | –
CC(C)N(C(=O)C12C3C4C5C3C1(C(=O)N(C(C)C)C(C)C)C5(C#N)C42)C(C)C (stereo not given) | > 100 µM (inactive) | > 100 µM (inactive) | 45.8 µM (inactive) | > 100 µM (inactive) | > 100 µM (inactive) | > 100 µM (inactive) | 27.1 µM (inactive) | > 100 µM (inactive) | > 100 µM (inactive)
COC(=O)/C=C/C(=O)C1C(C(=O)OC)C2(C(=O)OC)CCC1(C(=O)OC)N2 (stereo not given) | – | > 100 µM (inactive) | – | > 100 µM (inactive) | – | – | > 100 µM (inactive) | > 100 µM (inactive) | 0.198 µM (active)
O=C1C(c2ccc([N+](=O)[O-])cc2)=[N+]([O-])c2ccc([N+](=O)[O-])cc21 | 35.6 µM (inactive) | 27.6 µM (inactive) | 69.7 µM (inactive) | 54.8 µM (inactive) | – | 28.4 µM (inactive) | 33.4 µM (inactive) | 79.8 µM (inactive) | –
c1ccc(N2N=NC3C4CC(C5c6ccccc6C45)C32)cc1 (stereo not given) | 34.7 µM (inactive) | 22.7 µM (inactive) | 47.1 µM (inactive) | – | 32.4 µM (inactive) | 44 µM (inactive) | 32.5 µM (inactive) | 43.4 µM (inactive) | 19.1 µM (inactive)
COC(=O)/C([Se]c1c(C)cc(C)cc1C)=C(\[Se]c1c(C)cc(C)cc1C)C(=O)OC | > 100 µM (inactive) | > 100 µM (inactive) | > 100 µM (inactive) | > 100 µM (inactive) | > 100 µM (inactive) | > 100 µM (inactive) | > 100 µM (inactive) | > 100 µM (inactive) | –
[O-][N+]1=C(c2ccccc2)COc2ccccc21 | 70.1 µM (inactive) | > 100 µM (inactive) | > 100 µM (inactive) | > 100 µM (inactive) | > 100 µM (inactive) | > 100 µM (inactive) | > 100 µM (inactive) | > 100 µM (inactive) | –
COc1cc2c(cc1O)CCN[C@@]21CS[C@H]2c3c(OC(C)=O)c(C)c4c(c3C(COC1=O)N1C2C2NC(Cc3cc(C)c(OC)c(O)c32)[C@@H]1C#N)OCO4 (stereo not given in full) | < 0.01 µM (active) | < 0.01 µM (active) | < 0.01 µM (active) | – | < 0.01 µM (active) | < 0.01 µM (active) | < 0.01 µM (active) | – | < 0.01 µM (active)

— ChEMBL document CHEMBL1201862, “PubChem BioAssay data set” (2004)
